Reference: US20230348362A1, “LIPID COMPOUNDS AND LIPID NANOPARTICLE COMPOSITIONS” (Suzhou Abogen Biosciences Co., Ltd., priority 2021, published 2023)

Legend:
Assay type in all cases: physicochemical
[1] = Encapsulation efficiency of lipid nanoparticles, Quant-it Ribogreen RNA assay; conditions: LNP of lipid/DSPC/cholesterol/PEG-lipid 50:10:38.5:1.5 encapsulating hEPO mRNA
Outline: (§1)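 LNPs made from ionizable lipid/DSPC/cholesterol/PEG-lipid (50:10:38.5:1.5) and mRNA in citrate pH 4 by microfluidic mixing, lipid:mRNA about 10:1–30:1 w/w, then dialysed into DPBS and filtered. Size and PDI measured by DLS in backscatter mode; encapsulation efficiency measured by RiboGreen assay.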

[2] = Apparent pKa of LNP formulations, TNS fluorescence assay; conditions: LNP cationic lipid/DSPC/cholesterol/DMG-PEG 50/10/38.5/1.5 mol %
Outline: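 LNPs (cationic lipid/DSPC/cholesterol/DMG-PEG 50/10/38.5/1.5 mol %) diluted to 0.1 mg/mL total lipid in citrate/phosphate/borate/NaCl buffers spanning pH 3–9 with TNS. Fluorescence (ex 325, em 435 nm) read at room temperature; pKa taken as the pH at half-maximal intensity from sigmoidal fit.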

[3] = Lipid nanoparticle size and polydispersity by dynamic light scattering; conditions: LNP of lipid/DSPC/cholesterol/PEG-lipid 50:10:38.5:1.5 encapsulating hEPO mRNA
Outline: as §1

| SMILES | Encapsulation Efficiency [1] | Apparent Pka [2] | polydispersity [3] | size (nm) [3] |
| --- | --- | --- | --- | --- |
| CCCCCCCCC(CCCCCCCC)COC(=O)CCCCCN1CCC(N(CCO)CCCCCC(=O)OCC(CCCCCCCC)CCCCCCCC)CC1 [Compound 170] | 96.0% | 6.269 | 0.09 | 74.62 nm |
| CCCCCCCCCOC(=O)CCCCCCCN1CCC(N(CCO)CCCCCCCC(=O)OC(CCCCCCCC)CCCCCCCC)CC1 [Compound 177] | 93.69% | 6.668 | 0.059 | 95.00 nm |
| CCCCCCCC(=O)OCC(COCCN(CCO)CCN(CCOCC(COC(=O)CCCCCCC)COC(=O)CCCCCCC)C1CCCCC1)COC(=O)CCCCCCC [Compound 179] | 89.97% | 6.322 | 0.041 | 103.40 nm |
| CCCCCCCCCCCNC(=O)CCCCCN(CCN(CCO)CCCCC(COC(=O)CCCCCCC)COC(=O)CCCCCCC)C1CCC1 [Compound 188] | 86.80% | 6.738 | 0.085 | 111.8 nm |
| CCCCCCCCC(CCCCCC)CNC(=O)CCCCCN(CCCCN(CCO)CCCCC(COC(=O)CCCCCCC)COC(=O)CCCCCCC)C1CC1 (stereo not drawn) [Compound 195] | 83.82% | 6.925 | 0.153 | 104.2 nm |
| CCCCCCCCC(CCCCCC)CNC(=O)CCCCCN(CCCCN(CCO)CCCCC(COC(=O)CCCCCCC)COC(=O)CCCCCCC)C1CCCCCC1 (stereo not drawn) [Compound 198] | 88.41% | 6.984 | 0.069 | 96.11 nm |
| CCCCCCCCC(CCCCCC)CNC(=O)CCCCCN(CCCCN(CCO)CCCCC(COC(=O)CCCCCCC)COC(=O)CCCCCCC)C1CCCCCCC1 (stereo not drawn) [Compound 199] | 94.30% | 6.858 | 0.162 | 80.14 nm |
| CCCCCCCCCCCOC(=O)CCCCCN(CCN(CCO)CCCCCC(OCCCCCCCC)OCCCCCCCC)C1CCC1 [Compound 200] | 92.81% | 6.593 | 0.054 | 84.18 nm |
| CCCCCCCCOC(CCCCCN(CCO)CCN(CCCCCC(=O)OCC(CCCCCC)CCCCCCCC)C1CCC1)OCCCCCCCC (stereo not drawn) [Compound 201] | 94.15% | 6.226 | 0.028 | 91.64 nm |
| CCCCCCCCOC(CCCCCN(CCO)CCN(CCCCCC(=O)NCC(CCCCCC)CCCCCCCC)C1CCCCCC1)OCCCCCCCC (stereo not drawn) [Compound 202] | 88.47% | 6.738 | 0.042 | 84.35 nm |
| CCCCCCCCC(CCCCCC)CNC(=O)CCCCCN(CCOCCO)CCN(CCCCC(COC(=O)CCCCCCC)COC(=O)CCCCCCC)C1CCCC1 (stereo not drawn) [Compound 205] | 81.79% | 6.917 | 0.023 | 104.3 nm |
| CCCCCCCCC(CCCCCC)CNC(=O)CCCCCN(CCOCCO)CCN(CCCCC(COC(=O)CCCCCCC)COC(=O)CCCCCCC)C1CCCCC1 (stereo not drawn) [Compound 206] | 80.88% | 6.81 | 0.07 | 112.7 nm |
| CCCCCCCCC(CCCCCC)CNC(=O)CCCCCN(CCOCCO)CCN(CCCCC(COC(=O)CCCCCCC)COC(=O)CCCCCCC)C1CCCCCC1 (stereo not drawn) [Compound 207] | 87.94% | 6.657 | 0.071 | 87.97 nm |
| CCCCCCCCC(CCCCCC)CNC(=O)CCCCCN(CCOCCO)CCN(CCCCC(COC(=O)CCCCCCC)COC(=O)CCCCCCC)C1CCCCCCC1 (stereo not drawn) [Compound 208] | 86.63% | 6.691 | 0.053 | 85.95 nm |

Other lines, results leading:

| Encapsulation Efficiency [1] | Apparent Pka [2] | polydispersity [3] | size (nm) [3] | SMILES |
| --- | --- | --- | --- | --- |
| 75.66% | 6.183 | 0.125 | 131.30 nm | CCCCCCC(=O)OCC(CCCCN(CCO)CCN(CCCCC(COC(=O)CCCCCC)COC(=O)CCCCCC)C1CCC1)COC(=O)CCCCCC [Compound 165] |
| 92.85% | 6.513 | 0.092 | 75.12 nm | CCCCCCCCC(=O)OCC(CCCCN(CCO)CCN(CCCCC(COC(=O)CCCCCCCC)COC(=O)CCCCCCCC)C1CCC1)COC(=O)CCCCCCCC [Compound 166] |
| 91.48% | 6.537 | 0.107 | 78.08 nm | CCCCCCCCCCC(=O)OCC(CCCCN(CCO)CCN(CCCCC(COC(=O)CCCCCCCCCC)COC(=O)CCCCCCCCCC)C1CCC1)COC(=O)CCCCCCCCCC [Compound 168] |
| 89.88% | 6.447 | 0.153 | 73.05 nm | CCCCCCCCCCCC(=O)OCC(CCCCN(CCO)CCN(CCCCC(COC(=O)CCCCCCCCCCC)COC(=O)CCCCCCCCCCC)C1CCC1)COC(=O)CCCCCCCCCCC [Compound 169] |
| 89.15% | 6.337 | 0.056 | 96.32 nm | CCCCCCCC(=O)OCC(COCCN(CCO)CCN(CCOCC(COC(=O)CCCCCCC)COC(=O)CCCCCCC)C1CCC1)COC(=O)CCCCCCC [Compound 178] |
| 94.10% | 6.995 | 0.154 | 119.3 nm | CCCCCCCC(=O)OCC(CCCCN(CCO)CCCCN(CCCCC(COC(=O)CCCCCCC)COC(=O)CCCCCCC)C1CCCC1)COC(=O)CCCCCCC [Compound 181] |
| 91.00% | 6.862 | 0.09 | 99.97 nm | CCCCCCCCCCCOC(=O)CCCCCN(CCN(CCO)CCCCC(COC(=O)CCCCCCC)COC(=O)CCCCCCC)C1CCC1 [Compound 182] |
| 92.26% | 6.858 | 0.032 | 103.2 nm | CCCCCCCCCCCOC(=O)CCCCCN(CCN(CCO)CCCCC(COC(=O)CCCCCCC)COC(=O)CCCCCCC)C1CCCC1 [Compound 183] |
| 90.65% | 7.098 | 0.172 | 129.75 nm | CCCCCCCC(=O)OCC(CCCCN(CCC)CCCCN(CCO)CCCCC(COC(=O)CCCCCCC)COC(=O)CCCCCCC)COC(=O)CCCCCCC [Compound 184] |
| 90.39% | 6.593 | 0.111 | 75.27 nm | CCCCCCCC(=O)OCC(CCCCN(CCO)CCCCN(CCCCC(COC(=O)CCCCCCC)COC(=O)CCCCCCC)C1CCCCC1)COC(=O)CCCCCCC [Compound 185] |
| 91.69% | 7.617 | 0.139 | 72.88 nm | CCCCCCCCC(CCCCCCCC)CNC(=O)CCCCCN(CCCCN(CCO)CCCCC(COC(=O)CCCCCCC)COC(=O)CCCCCCC)C1CCC1 [Compound 186] |
| 94.26% | 6.226 | 0.083 | 88.82 nm | CCCCCCCCC(CCCCCCCC)COC(=O)CCCCCN(CCCCCN(CCO)CCCCC(COC(=O)CCCCCCC)COC(=O)CCCCCCC)C1CCC1 [Compound 187] |
| 93.88% | 6.542 | 0.114 | 87.22 nm | CCCCCCCC(=O)OCC(CCCCN(CCO)CCCCN(CCCCC(COC(=O)CCCCCCC)COC(=O)CCCCCCC)C(C)C)COC(=O)CCCCCCC [Compound 189] |
| 88.81% | 6.699 | 0.13 | 78.4 nm | CCCCCCCCC(CCCCCC)COC(=O)CCCCCN(CCCCN(CCO)CCCCC(COC(=O)CCCCCCC)COC(=O)CCCCCCC)C1CC1 (stereo not drawn) [Compound 190] |
| 93.35% | 6.552 | 0.117 | 86.61 nm | CCCCCCCCC(CCCCCC)COC(=O)CCCCCN(CCCCN(CCO)CCCCC(COC(=O)CCCCCCC)COC(=O)CCCCCCC)C1CCCC1 (stereo not drawn) [Compound 191] |
| 90.40% | 6.707 | 0.109 | 82.66 nm | CCCCCCCCC(CCCCCC)COC(=O)CCCCCN(CCCCN(CCO)CCCCC(COC(=O)CCCCCCC)COC(=O)CCCCCCC)C1CCCCC1 (stereo not drawn) [Compound 192] |
| 84.30% | 6.666 | 0.228 | 80.39 nm | CCCCCCCCC(CCCCCC)COC(=O)CCCCCN(CCCCN(CCO)CCCCC(COC(=O)CCCCCCC)COC(=O)CCCCCCC)C1CCCCCC1 (stereo not drawn) [Compound 193] |
| 84.59% | 6.705 | 0.15 | 102.1 nm | CCCCCCCCC(CCCCCC)COC(=O)CCCCCN(CCCCN(CCO)CCCCC(COC(=O)CCCCCCC)COC(=O)CCCCCCC)C1CCCCCCC1 (stereo not drawn) [Compound 194] |
| 78.17% | 6.874 | 0.16 | 131.9 nm | CCCCCCCC(=O)OCC(CCCCN(CC=C(C)C)CCCCN(CCO)CCCCC(COC(=O)CCCCCCC)COC(=O)CCCCCCC)COC(=O)CCCCCCC [Compound 203] |
